Results published in US8722580B2, “Agent for inhibiting cytokinin signaling” (Sumitomo Chemical Company, Limited, priority 2006, dated 2014).

Legend:
[1] = tested on: Arabidopsis thaliana; assay: Root growth-promoting activity test (Example 9); type: in vivo; conditions: main root length vs control section, 22° C., 10 days
Procedure: Enshi standard medium having the following composition (see Table 10) was prepared. To cluster tubes was dispensed each 4 μl of a solution of a chemical substance in DMSO to a final concentration of 0.001 ppm to 10 ppm, and then, was dispensed each 600 μl of the sterilized Enshi standard medium. Then the resulting solution was well mixed. In each of the cluster tubes, 10-20 seeds of Arabidopsis thaliana were sown, and cultured at 22° C. for 10 days in the light. Then, the length of main roots (average main roots) generated from the seeds of Arabidopsis thaliana was measured. An average of eight repeats was determined, and a root growth rate was determined according to the following equation.
Root growth rate (%)=(Average main root length in chemical substance-treated section)/(Average main root length in control section)×100

[2] = target: T1, cytokinin receptor CRE1 (Arabidopsis thaliana, UniProt Q9C5U0, S567G/T1018A); assay: Inhibition of intracellular signaling from plant-derived cytokinin receptor, growth of transformed yeast cell TM182-CRE1; type: cell-based; conditions: trans-zeatin 0.6 ppm, chemical substance 2 ppm; for Relative growth rate (%) in test section of test substance to control section, Transformed cell TM182-CRE1: 30° C., 24 hours, turbidity OD 600; for Activity (%) of test substance for inhibiting intracellular signaling from plant-derived cytokinin receptor of cell: = 100 − relative growth rate of TM182-CRE1
T1 construct: expressed in transfected cells; host or cells: Saccharomyces cerevisiae TM182 (sln1Δ) transformed with p415CYC-CRE1
T1 sequence (Q9C5U0 24-1080 S567G/T1018A): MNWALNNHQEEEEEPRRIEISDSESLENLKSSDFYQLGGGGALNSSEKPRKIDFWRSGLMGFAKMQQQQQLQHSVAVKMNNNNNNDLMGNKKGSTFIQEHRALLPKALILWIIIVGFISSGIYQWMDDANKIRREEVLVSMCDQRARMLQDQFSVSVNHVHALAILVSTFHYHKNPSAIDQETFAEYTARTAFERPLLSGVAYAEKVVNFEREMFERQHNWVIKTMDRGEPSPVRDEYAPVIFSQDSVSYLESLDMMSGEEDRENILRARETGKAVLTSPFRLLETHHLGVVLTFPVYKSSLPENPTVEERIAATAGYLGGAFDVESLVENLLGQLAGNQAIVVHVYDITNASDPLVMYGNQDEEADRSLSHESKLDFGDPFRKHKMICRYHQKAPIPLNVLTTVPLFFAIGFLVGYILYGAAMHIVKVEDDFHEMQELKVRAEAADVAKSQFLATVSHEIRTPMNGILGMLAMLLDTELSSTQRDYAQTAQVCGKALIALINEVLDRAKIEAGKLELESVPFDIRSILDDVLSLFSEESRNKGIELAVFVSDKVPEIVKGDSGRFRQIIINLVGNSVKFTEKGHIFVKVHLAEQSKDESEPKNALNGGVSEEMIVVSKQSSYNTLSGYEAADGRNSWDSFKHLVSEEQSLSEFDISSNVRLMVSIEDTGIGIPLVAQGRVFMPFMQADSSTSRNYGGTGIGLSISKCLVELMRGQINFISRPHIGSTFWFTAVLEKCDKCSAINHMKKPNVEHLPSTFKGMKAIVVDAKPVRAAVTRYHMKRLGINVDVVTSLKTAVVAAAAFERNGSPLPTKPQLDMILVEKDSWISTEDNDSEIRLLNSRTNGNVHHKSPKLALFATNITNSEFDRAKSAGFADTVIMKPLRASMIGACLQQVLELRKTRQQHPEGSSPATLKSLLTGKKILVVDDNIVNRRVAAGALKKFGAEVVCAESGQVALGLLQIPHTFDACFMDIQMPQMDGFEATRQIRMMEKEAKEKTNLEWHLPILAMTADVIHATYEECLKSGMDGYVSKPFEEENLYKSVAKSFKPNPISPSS
Procedure: (§1) The transformed cell TM182-CRE1 and the transformed cell TM182-p415CYC1 obtained in Example 6 were each inoculated in 10 ml of a DOLU+Gal medium, and preincubated at 30° C. for 18 hours to obtain a preincubation liquid for each of the transformed cells. The preincubation liquid was diluted with a DOLU+Glu medium for the transformed cell TM182-CRE1 or with a DOLU+Gal medium for the transformed cell TM182-p415CYC1 until OD600=0.1 was reached, to obtain a preincubation dilution for each of the transformed cells.
(§2) To each well of a 96-well plate was added 1 μl of a 200 ppm solution of a test substance in dimethyl sulfoxide (DMSO) to prepare an Assay plate. At the same time, as controls, only 1 μl of DMSO was added to a part of wells. An assay plate for the transformed cell TM182-CRE1 and an assay plate for the transformed cell TM182-p415CYC1 were prepared.
(§3) A 10,000 ppm solution of trans-zeatin (cytokinin) in DMSO was 50-fold diluted with a DOLU+Gul medium to 200 ppm. The 200 ppm trans-zeatin solution was added in an amount of 3/1,000 volume to each of the above-described preincubation dilution to prepare each preincubation dilution containing trans-zeatin at 0.6 ppm. The 0.6 ppm preincubation dilution was added in an amount of 100 μl to each wells of the assay plate for each transformed cell. The plates were incubated at 30° C. for 24 hours. Then, turbidity (OD 600) of each well was measured by using a plate reader. The activity of the test substance for inhibiting intracellular signaling from a plant-derived cytokinin receptor of a cell was tested by comparing the measured turbidity with the turbidity of the control well.
(§4) (Relative growth rate in test section to control section) [%]=[(Turbidity in test section)−(Turbidity in blank)]/[(Turbidity in control section)−(Turbidity in blank)]×100 (Activity of inhibiting intracellular signaling from plant-derived cytokinin receptor of cell) [%]=100−(Relative growth rate in test section to control section)
(§5) In all cases, the existing concentration of trans-zeatin was adjusted to 0.6 ppm and the existing concentration of a chemical substance was adjusted to 2 ppm.
(§6) In all cases, the existing concentration of trans-zeatin was adjusted to 0.6 ppm and the existing concentration of a chemical substance was adjusted to 2 […].

[3] = tested on: transformed cell TM182-p415CYC1; assay: Control growth test with transformed yeast cell TM182-p415CYC1 (toxicity to yeast); type: cell-based; conditions: trans-zeatin 0.6 ppm; chemical substance 2 ppm; 30° C., 24 hours; turbidity OD 600
Procedure: as §1, §2, §3, §4, §5, §6

[4] = test final concentration 5 ppm (concentration with highest root growth rate)
[5] = test final concentration 10 ppm (concentration with highest root growth rate)
[6] = test final concentration 0.625 ppm (concentration with highest root growth rate)
[7] = test final concentration 0.156 ppm (concentration with highest root growth rate)
[8] = test final concentration 2.5 ppm (concentration with highest root growth rate)

| SMILES | Relative growth rate (%) in test section of test substance to control section, Transformed cell TM182-CRE1 [2] [%] | Activity (%) of test substance for inhibiting intracellular signaling from plant-derived cytokinin receptor of cell [2] [%] | Relative growth rate (%) in test section of test substance to control section, Transformed cell TM182-p415CYC1 [3] [%] | also measured |
| --- | --- | --- | --- | --- |
| Clc1nc(-c2ccccc2)c2c(Cl)cccc2n1 [Ia1-1] |  |  |  | Root growth-promoting activity (root growth rate) [1, 4]: 133.3% |
| Fc1ccc2nc(Cl)nc(-c3ccccc3)c2c1 [Ia1-2] |  |  |  | Root growth-promoting activity (root growth rate) [1, 5]: 139.7% |
| FC(F)(F)c1ccc2nc(Cl)nc(-c3ccccc3)c2c1 [Ia1-6] |  |  |  | Root growth-promoting activity (root growth rate) [1, 6]: 126.9% |
| O=[N+]([O-])c1ccc2nc(Cl)nc(-c3ccccc3)c2c1 [Ia1-7] | 1.2 | 98.8 | 78.8 |  |
| Clc1cccc(-c2nc(Cl)nc3ccc(Cl)cc23)c1 [Ia1-14] |  |  |  | Root growth-promoting activity (root growth rate) [1, 7]: 129.3% |
| O=Cc1nc(-c2ccccc2Cl)c2cc(Br)ccc2n1 [Ib4-1] | 8.7 | 91.3 | 110.9 |  |
| OCCCNc1nc(-c2ccccc2)c2cc(F)ccc2n1 [Ic2-1] | 2.8 | 97.2 | 124.6 | Root growth-promoting activity (root growth rate) [1, 8]: 127.4% |
| CN(CCO)c1nc(-c2ccccc2)c2cc(Cl)ccc2n1 [Ic3-6] | 2.8 | 97.2 | 114.6 | Root growth-promoting activity (root growth rate) [1, 6]: 122.4% |
| COCCN(C)c1nc(-c2ccccc2)c2cc(Cl)ccc2n1 [Ic3-9] | 1.5 | 98.5 | 122.0 |  |
| Nc1nc(-c2ccccc2)c2cc(Cl)ccc2n1 [Ic3-19] | 2.4 | 97.6 | 102.7 | Root growth-promoting activity (root growth rate) ([1]; test final concentration 1.25 ppm (concentration with highest root growth rate)): 155.6% |
| NNc1nc(-c2ccccc2)c2cc(Cl)ccc2n1 [Ic3-20] | 5.0 | 95.0 | 86.5 | Root growth-promoting activity (root growth rate) [1, 5]: 137.8% |
| CN(C)CCNc1nc(-c2ccccc2)c2cc(Cl)ccc2n1 [Ic3-21] | 5.0 | 95.0 | 121.6 | Root growth-promoting activity (root growth rate) [1, 8]: 131.7% |
| NCCCCNc1nc(-c2ccccc2)c2cc(Cl)ccc2n1 [Ic3-22] | 4.9 | 95.1 | 110.6 | Root growth-promoting activity (root growth rate) [1, 7]: 129.3% |
| CNc1nc(-c2ccccc2)c2cc(Cl)ccc2n1 [Ic3-23] | 4.1 | 95.9 | 108.1 | Root growth-promoting activity (root growth rate) [1, 5]: 150.0% |
| CN(C)c1nc(-c2ccccc2)c2cc(Cl)ccc2n1 [Ic3-25] | 6.0 | 94.0 | 122.0 | Root growth-promoting activity (root growth rate) [1, 5]: 140.0% |
| N#CCNc1nc(-c2ccccc2)c2cc(Cl)ccc2n1 [Ic3-26] | 5.3 | 94.7 | 110.7 | Root growth-promoting activity (root growth rate) [1, 4]: 136.4% |
| C#CCNc1nc(-c2ccccc2)c2cc(Cl)ccc2n1 [Ic3-30] | 2.2 | 97.8 | 108.9 |  |
| NC(=O)CNc1nc(-c2ccccc2)c2cc(Cl)ccc2n1 [Ic3-31] |  |  |  | Root growth-promoting activity (root growth rate) [1, 5]: 142.2% |
| N#CCCNc1nc(-c2ccccc2)c2cc(Cl)ccc2n1 [Ic3-34] | 0.2 | 99.8 | 118.5 |  |
| N=C(N)Nc1nc(-c2ccccc2)c2cc(Cl)ccc2n1 [Ic3-36] |  |  |  | Root growth-promoting activity (root growth rate) [1, 8]: 123.1% |
| CCOCCNc1nc(-c2ccccc2)c2cc(Cl)ccc2n1 [Ic3-45] | 0.8 | 99.2 | 98.7 |  |
| OCCNc1nc(-c2ccccc2)c2cc(Br)ccc2n1 [Ic4-1] | 4.6 | 95.4 | 95.0 |  |
| OCCCNc1nc(-c2ccccc2)c2cc(Br)ccc2n1 [Ic4-2] | 0.9 | 99.1 | 109.3 |  |
| Cc1ccc2nc(NCCCO)nc(-c3ccccc3)c2c1 [Ic5-5] | 7.2 | 92.8 | 126.3 | Root growth-promoting activity (root growth rate) [1, 8]: 157.8% |
| COc1ccc2nc(NCCCO)nc(-c3ccccc3)c2c1 [Ic8-1] |  |  |  | Root growth-promoting activity (root growth rate) [1, 5]: 162.1% |
| NCCOc1nc(-c2ccccc2)c2cc(Cl)ccc2n1 [Id3-1, 2-(2-aminoethoxy)-6-chloro-4-phenylquinazotine] | 2.1 | 97.9 | 112.5 |  |
| NCCSc1nc(-c2ccccc2)c2cc(Cl)ccc2n1 [Ie3-2] |  |  |  | Root growth-promoting activity (root growth rate) [1, 5]: 147.6% |
